Test results as given in patent US20240041042A1, “1-(PYRIDYL)-5-AZINYLPYRAZOLE DERIVATIVES, AND THEIR USE FOR CONTROL OF UNDESIRED PLANT GROWTH” (Bayer Aktiengesellschaft, priority 2020, published 2024).
Like-named read-outs stand apart in the source and are kept apart here.

Experiments:
Format in all cases: in vivo
[1] = test system: Zea mays (ZEAMX); conditions: crop plant compatibility, 80 g/ha, effect vs untreated controls
Summary of the method: (§1)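 Effects were read visually as % versus untreated controls (0% = no effect, 100% = death) about 3 weeks post-treatment. Application was a post-emergence spray at the one-leaf stage of WP/EC formulations with 0.5% additive at 600 l/ha. Different dosages are denoted a, b and c.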

[2] = test system: Oryza sativa (ORYSA); conditions: crop plant compatibility, 80 g/ha, effect in comparison to untreated controls
Summary of the method: as §1

[3] = test system: Abutilon theophrasti (ABUTH); experiment: Post-emergence herbicidal action against ABUTH; conditions: 320 g/ha, visual rating about 3 weeks after treatment vs untreated controls (100% = plants have died, 0% = like control plants)
Summary of the method: (§2)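 Post-emergence greenhouse spray, one-leaf stage, 600 l/ha water plus 0.5% additive; WP or EC formulations; application rates 320 g/ha or lower. Visual % damage vs untreated controls at ~3 weeks.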

[4] = test system: Verconica persica (VERPE); experiment: Post-emergence herbicidal action against VERPE
Summary of the method: as §2

[5] = test system: Setaria viridis (SETVI); experiment: Post-emergence herbicidal action against SETVI
Summary of the method: as §2

[6] = test system: Zea mays (ZEAMX); conditions: pre-emergence, crop plant compatibility, in comparison to untreated controls
Description: Seeds of monocotyledonous and dicotyledonous weed plants and crop plants are placed in plastic or organic planting pots and covered with soil. The compounds of the invention, formulated in the form of wettable powders (WP) or as emulsion concentrates (EC), are then applied to the surface of the covering soil as aqueous suspension or emulsion with addition of 0.5% additive at a water application rate equivalent to 600 l/ha. After the treatment, the pots are placed in a greenhouse and kept under good growth conditions for the trial plants. After about 3 weeks, the effect of the preparations is scored visually in comparison with untreated controls as percentages. For example, 100% activity=the plants have died, 0% activity=like control plants.
The observed effects on selected crop plants are reported here in comparison to the untreated controls (values in %). The appendices “a” “b” and “c” give differentiation by dosage used with otherwise the same crop plants tested.

[7] = test system: Pharbitis purpurea (PHBPU); experiment: Pre-emergence herbicidal action against PHBPU; conditions: dosage 320 g/ha
Summary of the method: (§3)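 Pre-emergence soil-surface spray, WP/EC formulation, 0.5% additive, 600 l/ha water, rates of 320 g/ha or lower. Greenhouse, ~3 wk. Visual score, % of untreated control (100% = plants dead, 0% = like control).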

[8] = test system: Viola tricolor (VIOTR); experiment: Pre-emergence herbicidal action against VIOTR
Summary of the method: as §3

[9] = test system: Pharbitis purpurea (PHBPU); experiment: Post-emergence herbicidal action against PHBPU; conditions: dosage 320 g/ha
Summary of the method: as §2

[10] = test system: Verconica persica (VERPE); experiment: Pre-emergence herbicidal action against VERPE; conditions: dosage 320 g/ha
Summary of the method: as §3

[11] = test system: Alopecurus myosuroides (ALOMY); experiment: Pre-emergence herbicidal action against ALOMY; conditions: 320 g/ha; scored visually after about 3 weeks; 100% = plants have died
Summary of the method: as §3

[12] = test system: Echinochloa crus-galli (ECHCG); experiment: Post-emergence herbicidal action against ECHCG
Summary of the method: as §2

[13] = test system: Polygonum convolvulus (POLCO); experiment: Pre-emergence herbicidal action against POLCO; conditions: dosage 320 g/ha
Summary of the method: as §3

[14] = test system: Echinochloa crus-galli (ECHCG); experiment: Pre-emergence herbicidal action against ECHCG; conditions: dosage 320 g/ha
Summary of the method: as §3

[15] = test system: Viola tricolor (VIOTR); experiment: Post-emergence herbicidal action against VIOTR
Summary of the method: as §2

[16] = test system: Polygonum convolvulus (POLCO); experiment: Post-emergence herbicidal action against POLCO; conditions: dosage 320 g/ha
Summary of the method: as §2

[17] = test system: Matricaria inodora (MATIN); experiment: Post-emergence herbicidal action against MATIN; conditions: dosage 320 g/ha
Summary of the method: as §2

[18] = test system: Amaranthus retroflexus (AMARE); experiment: Pre-emergence herbicidal action against AMARE; conditions: visual scoring after about 3 weeks vs untreated controls
Summary of the method: as §3

[19] = test system: Matricaria inodora (MATIN); experiment: Pre-emergence herbicidal action against MATIN
Summary of the method: as §3

[20] = test system: Setaria viridis (SETVI); experiment: Pre-emergence herbicidal action against SETVI; conditions: dosage 320 g/ha
Summary of the method: as §3

[21] = test system: Lolium rigidum (LOLRI); experiment: Pre-emergence herbicidal action against LOLRI; conditions: dosage 320 g/ha
Summary of the method: as §3

[22] = test system: Amaranthus retroflexus (AMARE); experiment: Post-emergence herbicidal action against AMARE
Summary of the method: as §2

[23] = test system: Lolium rigidum (LOLRI); experiment: Post-emergence herbicidal action against LOLRI; conditions: dosage 320 g/ha
Summary of the method: as §2

[24] = test system: Alopecurus myosuroides (ALOMY); experiment: Post-emergence herbicidal action against ALOMY; conditions: 320 g/ha, visual rating about 3 weeks after treatment vs untreated controls (100% = plants have died, 0% = like control plants)
Summary of the method: as §2

[25] = test system: Avena fatua (AVEFA); experiment: Post-emergence herbicidal action against AVEFA; conditions: 320 g/ha, visual rating about 3 weeks after treatment
Summary of the method: as §2

[26] = 80 g/ha, visual rating about 3 weeks after treatment vs untreated controls (100% = plants have died, 0% = like control plants)
[27] = 320 g/ha, visual rating about 3 weeks after treatment

| SMILES | Post-emergence action against ZEAMX in % [1] | Post-emergence action against ORYSA in % [2] | Post-emergence action against ABUTH in % [3] | Post-emergence action against VERPE in % ([4]; 320 g/ha, VERPE) | Post-emergence action against SETVI in % ([5]; dosage 320 g/ha) | Pre-emergence action against ZEAMX in % ([6]; 80 g/ha) | Post-emergence action against PHBPU in % [9] | Pre-emergence action against ALOMY [11] | Post-emergence action against ECHCG in % ([12]; dosage 80 g/ha) | Post-emergence action against ECHCG in % ([12]; dosage 320 g/ha) | Pre-emergence action against POLCO in % [13] | Pre-emergence action against ECHCG in % [14] | Post-emergence action against POLCO in % [16] | Post-emergence action against MATIN in % [17] | Pre-emergence action against AMARE in % ([18]; 320 g/ha) | Pre-emergence action against MATIN in % ([19]; dosage 320 g/ha) | Pre-emergence action against SETVI in % [20] | Pre-emergence action against LOLRI in % [21] | Post-emergence action against AMARE in % [22, 26] | Post-emergence action against AMARE in % [22, 27] | also measured |
| --- | --- | --- | --- | --- | --- | --- | --- | --- | --- | --- | --- | --- | --- | --- | --- | --- | --- | --- | --- | --- | --- |
| COCCOC(=O)COc1nn(-c2ncccc2C(F)(F)F)c(-c2cncc(F)c2)c1Br [Example I-157] | 20% | 10% | 80% | 90% | 80% | 10% | 80% | 80% | 80% | 90% | 90% | 80% |  |  |  |  |  |  |  |  | Post-emergence action against VERPE in % ([4]; dosage 80 g/ha): 80%; Pre-emergence action against PHBPU in % [7]: 90%; Pre-emergence action against VIOTR in % ([8]; 320 g/ha, Viola tricolor): 100%; Pre-emergence action against VIOTR in % ([8]; dosage 80 g/ha): 80%; Pre-emergence action against VERPE in % [10]: 90% |
| O=C(O)CSc1nn(-c2ccccn2)c(-c2cncc(F)c2)c1I [Example I-229] |  | 0% |  |  | 80% | 0% | 80% |  | 80% | 80% | 90% | 90% | 80% | 80% | 80% | 80% | 90% | 80% | 80% | 80% | Post-emergence action against SETVI in % ([5]; dosage 80 g/ha): 80%; Pre-emergence action against VIOTR in % ([8]; 320 g/ha, Viola tricolor): 90%; Post-emergence action against VIOTR in % ([15]; 80 g/ha): 80%; Post-emergence action against VIOTR in % ([15]; 320 g/ha): 80% |
| CCOC(=O)COc1nn(-c2ccccn2)c(-c2ccc(F)nc2)c1F [Example I-305] | 0% |  |  | 90% | 90% | 0% | 90% | 90% | 90% | 90% |  | 90% | 80% | 80% | 90% | 90% | 90% | 90% | 80% | 90% | Post-emergence action against LOLRI in % [23]: 90%; Post-emergence action against ALOMY in % [24]: 100%; Pre-emergence action against AMARE in % ([18]; 80 g/ha): 80%; Pre-emergence action against MATIN in % ([19]; dosage 80 g/ha): 80%; Post-emergence action against AVEFA in % [25]: 80% |
| O=C(O)COc1nn(-c2ccccn2)c(-c2ccc(F)nc2)c1F [Example I-373] | 0% | 0% | 80% | 90% | 90% | 0% | 80% | 90% |  | 90% | 90% | 90% | 80% | 90% | 90% | 90% | 80% | 80% | 80% | 80% | Pre-emergence action against ZEAMX in % ([6]; 320 g/ha): 0% |
